Reference: patent US20020160459A1, “PROCESS FOR PRODUCTION OF N-GLUCOSAMINE” (priority 1999, published 2002)
Like-named read-outs stand apart in the source and are kept apart here.

Columns and labels:
[1] = molecular target: T1, N-glucosamine-6-phosphate synthase (Escherichia coli, UniProt P17169); experiment: Product inhibition of N-glucosamine-6-phosphate synthase, spectrophotometric assay in crude cell extracts; assay type: biochemical; conditions: FIG. 5; assays run with various concentrations of added product
Method: N-glucosamine-6-phosphate synthase activity was measured in production strains containing integrated T7-glmS cassettes after growth in LB medium with and without IPTG (Table 2). N-glucosamine-6-phosphate synthase was assayed in crude cell extracts using either […] or spectrophotometric assays (Badet et al., 1987, Biochemistry 26:1940-1948) as described below. The extracts used for those assays were prepared by suspending washed cell pellets in 5 mL of 0.1 M KH2PO4/K2HPO4, pH 7.5 per gram of wet cell paste, passing the suspension through a French press at 16,000 psi, and centrifuging the disrupted cell suspension at 35,000-40,000 ×g for 15 to 20 minutes. The supernatant was used as the source of enzyme for the assay.
In the spectrophotometric assay, 1 mL reactions containing 50 mM KH2PO4/K2HPO4, 10 mM fructose-6-phosphate, 6 mM L-glutamine, 10 mM KCl, 0.6 mM acetylpyridine adenine dinucleotide (APAD), and 50-60 Units of L-glutamic dehydrogenase (Sigma Type II from bovine liver) were run at room temperature. The activity was followed by monitoring the absorbance at 365 nm after the addition of extract and corrected for the small absorbance increase observed in the absence of extract. The activity was calculated using a molar extinction coefficient for APAD of 9100. […]

[2] = molecular target: T1, N-glucosamine-6-phosphate synthase; conditions: White 1968, Biochem. J. 106:847-858; cited from earlier work
[3] = molecular target: T1, N-glucosamine-6-phosphate synthase; conditions: substrate of the enzyme from Escherichia coli; cited from earlier work

T1 sequence (P17169 2-609): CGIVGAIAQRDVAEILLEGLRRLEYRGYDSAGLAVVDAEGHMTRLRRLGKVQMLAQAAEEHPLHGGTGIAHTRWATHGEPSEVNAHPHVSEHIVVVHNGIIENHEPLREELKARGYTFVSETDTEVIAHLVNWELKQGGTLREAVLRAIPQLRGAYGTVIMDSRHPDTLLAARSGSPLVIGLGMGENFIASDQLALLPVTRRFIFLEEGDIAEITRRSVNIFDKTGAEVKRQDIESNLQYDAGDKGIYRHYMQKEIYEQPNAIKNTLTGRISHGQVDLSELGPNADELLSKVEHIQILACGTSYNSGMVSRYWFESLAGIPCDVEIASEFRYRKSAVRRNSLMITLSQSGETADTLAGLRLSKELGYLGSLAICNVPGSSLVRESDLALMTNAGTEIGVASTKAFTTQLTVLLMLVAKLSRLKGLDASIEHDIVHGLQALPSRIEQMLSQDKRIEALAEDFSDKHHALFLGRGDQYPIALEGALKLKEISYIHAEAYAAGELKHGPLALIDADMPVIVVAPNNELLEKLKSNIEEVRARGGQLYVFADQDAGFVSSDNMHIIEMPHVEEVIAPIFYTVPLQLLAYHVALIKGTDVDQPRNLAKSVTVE

SMILES	inhibition of N-glucosamine-6-phosphate synthase [1]	inhibition of N-glucosamine-6-phosphate synthase [2]	Km [3] [µM]
N[C@@H]1[C@@H](O)[C@H](O)[C@@H](COP(=O)(O)O)O[C@@H]1O [N-glucosamine-6-phosphate]	significantly inhibited	inhibited	
N[C@H]1C(O)O[C@H](CO)[C@@H](O)[C@@H]1O (some centres unmarked) [N-glucosamine]	slightly inhibited		
O=C(CO)[C@@H](O)[C@H](O)[C@H](O)COP(=O)(O)O [fructose-6-phosphate]			2000
NC(=O)CC[C@H](N)C(=O)O [glutamine]			400
